Assay results taken from patent US20130324522A1, “INSECT ODORANT RECEPTOR ANTAGONISTS” (THE ROCKEFELLER UNIVERSITY, priority 2010, published 2013).
pIC50: −log10 of the molar value. Read-outs that look alike come from different tables or passages of the source.

What was measured:
Or47a/Or83b = molecular target: T1, Or47a/Or83b (Drosophila melanogaster, UniProt P81921+Q9VNB5); assay: Ca2+-imaging of stable Flip-In T-Rex cell line Or47a/Or83b; format: cell-based; details: for inhibition at 4 µM: read-out: Percent Inhibition OR47a OR83b
T1 construct: Full-length cDNAs for mosquito (Anopheles gambiae) odorant receptor (OR1, OR2, OR7, OR8, OR28), and fly (Drosophila melanogaster) odorant receptor (Or47a, Or83b); expressed in transfected cells
T1 sequence (P81921 1-385): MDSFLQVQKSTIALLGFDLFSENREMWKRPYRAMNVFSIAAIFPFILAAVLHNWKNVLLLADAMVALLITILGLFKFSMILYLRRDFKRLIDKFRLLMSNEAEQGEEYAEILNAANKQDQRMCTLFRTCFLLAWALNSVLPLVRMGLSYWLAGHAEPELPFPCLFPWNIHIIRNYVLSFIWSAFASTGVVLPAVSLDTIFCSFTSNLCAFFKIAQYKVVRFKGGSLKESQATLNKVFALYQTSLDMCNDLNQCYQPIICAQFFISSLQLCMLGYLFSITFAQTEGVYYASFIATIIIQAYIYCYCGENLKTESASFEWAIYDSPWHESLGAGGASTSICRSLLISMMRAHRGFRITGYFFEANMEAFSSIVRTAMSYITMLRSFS
T1 sequence (Q9VNB5 1-486): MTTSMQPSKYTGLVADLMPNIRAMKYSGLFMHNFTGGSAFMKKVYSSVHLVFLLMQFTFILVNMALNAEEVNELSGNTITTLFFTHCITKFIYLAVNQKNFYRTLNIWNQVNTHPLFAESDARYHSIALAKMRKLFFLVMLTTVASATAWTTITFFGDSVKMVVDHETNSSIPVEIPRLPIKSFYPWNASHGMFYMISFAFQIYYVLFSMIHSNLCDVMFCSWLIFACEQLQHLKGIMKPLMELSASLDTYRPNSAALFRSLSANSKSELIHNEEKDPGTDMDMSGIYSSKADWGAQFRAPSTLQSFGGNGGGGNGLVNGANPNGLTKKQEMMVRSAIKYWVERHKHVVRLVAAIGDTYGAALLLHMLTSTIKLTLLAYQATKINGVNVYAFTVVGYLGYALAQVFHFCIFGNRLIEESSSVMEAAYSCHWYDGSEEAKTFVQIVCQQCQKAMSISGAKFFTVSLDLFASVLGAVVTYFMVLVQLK
Description: (§1) Full-length cDNAs for mosquito (Anopheles gambiae) odorant receptor (OR1, OR2, OR7, OR8, OR28), and fly (Drosophila melanogaster) odorant receptor (Or47a, Or83b), mouse TRP channel (TRPM8), and mouse serotonin receptor (5HT3) were obtained and subcloned into mammalian expression vectors. The following mammalian expression vectors were used:
Stable cell lines Or47a/Or83b and 5HT3 were generated from Flip-In T-Rex cells. Flip-In T-Rex-based cell lines were cultured in DMEM supplemented with these additional antibiotics: 6 μg/mL blasticidin and 100 μg/mL hygromycin.
Cells were trypsinized and split into 35 mm dishes 1 day before transfection. Confluent cells (60-70%) in 35 mm dishes were co-transfected with 1 μg of Or47a/Or83b plasmid in pcDNA5/FRT/TO/IRES plus the pOG44 plasmid or 1 μg of 5HT3 plasmid in pcDNA5/FRT/TO plus the pOG44 plasmid using lipofectamine 2000. Co-transfection of pOG44 and pcDNA5/FRT/TO/IRES or pcDNA5/FRT/TO allows expression of Flp recombinase and integration of the pcDNA5 plasmid into the genome via the FRT site. After one day of incubation, the transfected cells were transferred into 10 cm dishes with DMEM containing antibiotics: 20 μg/mL of hygromycin and 6 μg/mL of blasticidin. The concentration of Hygromycin was increased to 100 μg/mL when the population of cells became 30-40% confluent. The cells were cultured by changing medium every two days until cell clumps appeared. The clumps were picked and transferred into 96 well plates with DMEM containing 100 μg/mL of Hygromycin and 6 μg/mL of blasticidin. The cells were grown and transferred to 24 well plates, and ligand-evoked calcium increases were tested using the Hamamatsu FDSS6000 real time fluorescence plate reader.
(§2) Stable cell lines were cultured in 10 cm dishes, and confluent cells (70-80%) were trypsinized. 10,000 cells/20 μL were transferred into each well of 384-well plates coated with poly-D-lysine, and cultured for 2 days. For Flip-In T-Rex cells (cell lines expressing Or47a/Or83b and 5HT3), 5 μL of tetracycline (5 μg/mL) were added 1 day before the assay. 20 μL of Ca-4 dye was loaded into each well for 1.5 hr at room temperature in the dark, and the dye-loaded plates were subjected to Ca^2+-imaging using a Hamamatsu FDSS6000 real time fluorescence plate reader. Odorant solutions (9× final concentration) were prepared by dissolving 1M stock solutions into Hank's Buffered Salt Solution (HBSS), and 30 μL of odor solution was transferred to each well in 384-well plates.
(§3) Compounds ([…] in DMSO) were stored in 384-well plates, and last two columns (32 wells total) contained only DMSO. 200 nL of small compounds were transferred into the odorant plates before the assay using the Perkin-Elmer Janus workstation. The odorant plates were spun down to remove air bubbles, and placed on the FDSS6000 plate loader, and 5 μL of odorant solution was applied to the cell plate on the FDSS6000. Ca^2+ increase was monitored with fluorescence at 525 nm by excitation at 485 nm.

TRP channel (TRPM8) = molecular target: T2, TRP channel (TRPM8) (Mus musculus, UniProt Q8R4D5); assay: Ca2+-imaging of stable HEK293T cell line TRPM8; format: cell-based; details: for inhibition at 4 µM: HEK-293T, read-out: Percent Inhibition TRPM8
T2 construct: Full-length cDNAs for mosquito (Anopheles gambiae) odorant receptor (OR1, OR2, OR7, OR8, OR28), and fly (Drosophila melanogaster) odorant receptor (Or47a, Or83b), mouse TRP channel (TRPM8); expressed in transfected cells
Description: as §1
Stable cell lines OR1/OR7, OR2/OR7, OR8/OR7, OR10/OR7, OR28/OR7 and TRPM8 were generated from HEK293T cells. HEK293T-based cell lines were cultured in DMEM supplemented with these additional antibiotics: 6 μg/mL blasticidin and 1 μg/mL puromycin, with the exception of the TRPM8 cell lines, which was cultured in DMEM supplemented with 1 μg/mL puromycin.
Cells were trypsinized and split into 35 mm dishes one day before transfection. Confluent cells (60-70%) in 35 mm dishes were transfected with 1 μg of insect OR(X) plasmids in pME18s-bla and 1 μg of OR7-pME18s-puro using lipofectamine 2000. For Anopheles odorant receptors, two plasmids were co-transfected into HEK cells: the ligand-specific receptor (OR1, OR2, OR8, OR28) and the corresponding olfactory co-receptor: OR7. Cell lines containing TRPM8 were transfected with single plasmid.
as §2, §3

T2 sequence (Q8R4D5 whole entry): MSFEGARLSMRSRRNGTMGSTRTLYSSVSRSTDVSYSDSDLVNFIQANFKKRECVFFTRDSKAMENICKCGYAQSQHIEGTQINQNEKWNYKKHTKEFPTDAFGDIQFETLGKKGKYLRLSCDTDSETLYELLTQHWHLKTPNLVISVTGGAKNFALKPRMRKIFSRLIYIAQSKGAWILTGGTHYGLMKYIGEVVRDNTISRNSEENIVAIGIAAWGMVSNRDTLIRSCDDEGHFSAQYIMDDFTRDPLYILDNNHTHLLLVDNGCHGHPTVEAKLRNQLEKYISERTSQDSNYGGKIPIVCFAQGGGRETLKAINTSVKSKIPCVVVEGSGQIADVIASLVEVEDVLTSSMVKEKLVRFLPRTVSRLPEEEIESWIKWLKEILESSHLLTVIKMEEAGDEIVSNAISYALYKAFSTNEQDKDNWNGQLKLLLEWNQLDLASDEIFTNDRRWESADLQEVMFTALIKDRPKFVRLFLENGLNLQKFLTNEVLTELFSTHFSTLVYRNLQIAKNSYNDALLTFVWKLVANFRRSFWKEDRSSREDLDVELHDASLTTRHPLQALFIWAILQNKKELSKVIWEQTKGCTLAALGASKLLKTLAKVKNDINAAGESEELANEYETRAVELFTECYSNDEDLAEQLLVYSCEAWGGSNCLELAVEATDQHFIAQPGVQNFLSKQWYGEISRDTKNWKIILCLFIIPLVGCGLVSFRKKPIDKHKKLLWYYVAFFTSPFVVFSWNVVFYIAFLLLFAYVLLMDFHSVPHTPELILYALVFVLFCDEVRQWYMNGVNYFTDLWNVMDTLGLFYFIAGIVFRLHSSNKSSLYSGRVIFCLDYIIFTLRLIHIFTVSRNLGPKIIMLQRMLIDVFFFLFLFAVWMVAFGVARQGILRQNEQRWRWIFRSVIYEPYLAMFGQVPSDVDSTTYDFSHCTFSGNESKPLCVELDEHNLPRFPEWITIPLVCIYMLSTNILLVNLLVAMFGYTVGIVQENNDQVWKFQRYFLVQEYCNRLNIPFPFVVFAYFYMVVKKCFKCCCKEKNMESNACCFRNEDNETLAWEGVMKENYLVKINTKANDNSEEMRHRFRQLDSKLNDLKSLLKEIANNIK

Row | Structure (SMILES) | inhibition at 4 µM (Or47a/Or83b; compound applied at 4 μM) | inhibition at 4 µM (TRP channel (TRPM8); compound applied at 4 μM) | also measured
1 | Cc1ccccc1C(=O)N[C@@H]1CCCCC1NC(=O)C1CCN(C(=O)c2ccc(C(C)(C)C)cc2)CC1 (some centres unmarked) [RU-0045678] | 26 to 50% | < 25% | 
2 | CCNc1nc(NCC)nc(SC)n1 [RU-T4] |  |  | pIC50 (Or47a/Or83b; ligand pentyl acetate 30 μM, read-out: IC50 OR47a OR83b): < 4.70; pIC50 (TRP channel (TRPM8); ligand menthol 300 μM, read-out: IC50 TRPM8): < 4.70
3 | Cc1nc(NC(C)C)nc(NC(C)C)n1 [RU-T6] |  |  | pIC50 (Or47a/Or83b): < 4.70; pIC50 (TRP channel (TRPM8)): < 4.70
4 | CCN(CC)C(=O)Oc1ccc2c(ccn2Cc2cccc(C)c2)c1NC(=O)CCCCC(=O)OC [RU-0075445] |  |  | inhibition at 4 µM (Or47a/Or83b): < 25%; inhibition at 4 µM (TRP channel (TRPM8)): < 25%
5 | COCCNC(=O)c1ccc(CSc2nnc(-c3ccc(C)cc3)n2-c2ccccc2C)cc1 [RU-0053556] | 26 to 50% | 26 to 50% | 
6 | CCN(CC)c1onc(-c2ccc(F)cc2)c1CN(CCCOC)C(=O)c1ccc2c(c1)OCO2 [RU-0036983] | 51 to 74% | 26 to 50% | pIC50 (Or47a/Or83b; Table B, read-out: IC50 OR47a): < 6.00
7 | Cc1nn(-c2ccc(Cl)cc2)c(C)c1C(=O)NCc1ccccn1 [RU-0048608] | 26 to 50% | < 25% | 
8 | Fc1ccccc1/C=N/Nc1nc(N2CCCCC2)nc(N2CCOCC2)n1 [RU-0018338] | 51 to 74% | 26 to 50% | pIC50 (Or47a/Or83b; Table B, read-out: IC50 OR47a): > 7.00
9 | CCOC(=O)c1c(NC(C)=O)c(-c2ccc(OC)cc2)cn1Cc1ccccc1 [RU-0077733] | 26 to 50% | < 25% | 
